Source: PubChem BioAssay (NCI)
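Exposure lasted 48 hours, with cells grown in 96-well plates and compounds tested at five concentrations. Here, GI50 denotes the concentration required for 50% inhibition of growth. TGI is the concentration that stops growth completely.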

What was measured:
Experiment in all cases: inhibition of tumour cell growth, NCI panel, 48 h
BT-549 breast = tested on: BT-549 breast
NCI/ADR-RES ovarian = tested on: NCI/ADR-RES ovarian
MDA-MB-435 = tested on: MDA-MB-435
SK-MEL-28 melanoma = tested on: SK-MEL-28 melanoma
SR leukemia = tested on: SR leukemia
LOX IMVI melanoma = tested on: LOX IMVI melanoma
MCF7 breast = tested on: MCF7 breast
IGROV1 ovarian = tested on: IGROV1 ovarian
HCC-2998 colon = tested on: HCC-2998 colon
SNB-75 CNS = tested on: SNB-75 CNS

## O=c1c2cc(I)ccc2nc(-c2cccs2)n1-c1ccc(O)cc1
BT-549 breast
  TGI: 27.9 µM
NCI/ADR-RES ovarian
  TGI: 56.2 µM
MDA-MB-435
  TGI: 30.8 µM
SK-MEL-28 melanoma
  TGI: 34 µM
SR leukemia
  TGI: > 100 µM
LOX IMVI melanoma
  TGI: 28.5 µM
MCF7 breast
  TGI: 32.8 µM
IGROV1 ovarian
  TGI: 46.7 µM
HCC-2998 colon
  TGI: 30.6 µM

## C(CCCCc1nnc(N2CCCCC2)o1)CCCc1nnc(N2CCCCC2)o1
BT-549 breast
  TGI: > 100 µM
NCI/ADR-RES ovarian
  TGI: > 100 µM
MDA-MB-435
  TGI: > 100 µM
SNB-75 CNS
  TGI: > 100 µM
SK-MEL-28 melanoma
  TGI: > 100 µM
LOX IMVI melanoma
  TGI: > 100 µM
MCF7 breast
  TGI: > 100 µM
IGROV1 ovarian
  TGI: > 100 µM
HCC-2998 colon
  TGI: > 100 µM

## Cc1ccc2c(c1C)C(=O)/C(=C/c1ccccc1C(=O)O)C2
BT-549 breast
  TGI: > 100 µM
NCI/ADR-RES ovarian
  TGI: > 100 µM
MDA-MB-435
  TGI: > 100 µM
SNB-75 CNS
  TGI: > 100 µM
SK-MEL-28 melanoma
  TGI: > 100 µM
SR leukemia
  TGI: > 100 µM
LOX IMVI melanoma
  TGI: > 100 µM
MCF7 breast
  TGI: > 100 µM
IGROV1 ovarian
  TGI: > 100 µM
HCC-2998 colon
  TGI: > 100 µM

## C=C(C)C(O)C(O)c1c(OC)ccc2ccc(=O)oc12 (stereo unspecified)
BT-549 breast
  TGI: > 100 µM
NCI/ADR-RES ovarian
  TGI: > 100 µM
MDA-MB-435
  TGI: > 100 µM
SNB-75 CNS
  TGI: > 100 µM
SK-MEL-28 melanoma
  TGI: > 100 µM
SR leukemia
  TGI: > 100 µM
MCF7 breast
  TGI: > 100 µM
IGROV1 ovarian
  TGI: > 100 µM
HCC-2998 colon
  TGI: > 100 µM

## CCN(CC)c1ccc2cc(C(=O)Nc3cccc4ccccc34)c(=N)oc2c1
BT-549 breast
  TGI: 62.1 µM
NCI/ADR-RES ovarian
  TGI: > 100 µM
MDA-MB-435
  TGI: > 100 µM
SNB-75 CNS
  TGI: > 100 µM
SK-MEL-28 melanoma
  TGI: > 100 µM
SR leukemia
  TGI: > 100 µM
LOX IMVI melanoma
  TGI: > 100 µM
MCF7 breast
  TGI: > 100 µM
IGROV1 ovarian
  TGI: > 100 µM
HCC-2998 colon
  TGI: > 100 µM

## CCOc1cc(C2CC(c3ccc(NS(=O)(=O)c4cc([N+](=O)[O-])ccc4C)cc3)=NN2c2ccc([N+](=O)[O-])cc2[N+](=O)[O-])ccc1O (stereo unspecified)
BT-549 breast
  TGI: 38.4 µM
NCI/ADR-RES ovarian
  TGI: 63.8 µM
MDA-MB-435
  TGI: > 100 µM
SNB-75 CNS
  TGI: 35.3 µM
SK-MEL-28 melanoma
  TGI: 89.4 µM
SR leukemia
  TGI: > 100 µM
LOX IMVI melanoma
  TGI: 44.1 µM
MCF7 breast
  TGI: 42.1 µM
IGROV1 ovarian
  TGI: 46.2 µM

## c1ccc2c(c1)CCc1c-2n(CCN2CCOCC2)c2ccccc12
BT-549 breast
  TGI: > 100 µM
NCI/ADR-RES ovarian
  TGI: > 100 µM
MDA-MB-435
  TGI: > 100 µM
SK-MEL-28 melanoma
  TGI: > 100 µM
SR leukemia
  TGI: 38.3 µM
LOX IMVI melanoma
  TGI: > 100 µM
MCF7 breast
  TGI: > 100 µM
IGROV1 ovarian
  TGI: > 100 µM
HCC-2998 colon
  TGI: > 100 µM

## CC1(C)CC(=O)c2c(nc3ccc4ccccc4c3c2-c2ccc(NC(=O)CCCCCCCCC(=O)Nc3ccc(-c4c5c(nc6ccc7ccccc7c46)CC(C)(C)CC5=O)cc3)cc2)C1
BT-549 breast
  TGI: > 100 µM
NCI/ADR-RES ovarian
  TGI: > 100 µM
MDA-MB-435
  TGI: > 100 µM
SK-MEL-28 melanoma
  TGI: > 100 µM
SR leukemia
  TGI: > 100 µM
LOX IMVI melanoma
  TGI: > 100 µM
MCF7 breast
  TGI: > 100 µM
IGROV1 ovarian
  TGI: > 100 µM

## COc1ccc(-c2c(C#N)c(S)n(NS(=O)(=O)c3ccc(C)cc3)c(=O)c2C#N)cc1
BT-549 breast
  TGI: 32.5 µM
NCI/ADR-RES ovarian
  TGI: 58.9 µM
SNB-75 CNS
  TGI: > 100 µM
SK-MEL-28 melanoma
  TGI: 63.2 µM
LOX IMVI melanoma
  TGI: 29.8 µM
MCF7 breast
  TGI: > 100 µM
IGROV1 ovarian
  TGI: 33.9 µM
HCC-2998 colon
  TGI: > 100 µM

## CC(=O)c1c(C(F)(F)F)n([O-])c2cc(Cl)c(Cl)cc2[n+]1=O
BT-549 breast
  TGI: 0.8 µM
NCI/ADR-RES ovarian
  TGI: 4.85 µM
MDA-MB-435
  TGI: 2.67 µM
SNB-75 CNS
  TGI: 2.25 µM
SK-MEL-28 melanoma
  TGI: 3.87 µM
SR leukemia
  TGI: 0.0361 µM
LOX IMVI melanoma
  TGI: 0.489 µM
MCF7 breast
  TGI: 1.52 µM
IGROV1 ovarian
  TGI: 0.498 µM

## CC1(C)[C@H]2CC[C@]1(C)[C@H](OC(=O)NNC(=O)O[C@@H]1C[C@@H]3CC[C@@]1(C)C3(C)C)C2
BT-549 breast
  TGI: 42.9 µM
MDA-MB-435
  TGI: 64.4 µM
SNB-75 CNS
  TGI: 28.1 µM
SK-MEL-28 melanoma
  TGI: > 100 µM
LOX IMVI melanoma
  TGI: > 100 µM
MCF7 breast
  TGI: 26.4 µM
IGROV1 ovarian
  TGI: 30.4 µM
HCC-2998 colon
  TGI: 27.7 µM

## C/C(Nc1ccc(F)cc1)=C1/CCOC1=O
BT-549 breast
  TGI: > 100 µM
NCI/ADR-RES ovarian
  TGI: > 100 µM
MDA-MB-435
  TGI: > 100 µM
SNB-75 CNS
  TGI: > 100 µM
SK-MEL-28 melanoma
  TGI: > 100 µM
SR leukemia
  TGI: > 100 µM
LOX IMVI melanoma
  TGI: > 100 µM
IGROV1 ovarian
  TGI: > 100 µM
HCC-2998 colon
  TGI: > 100 µM

## CCOC(=O)c1cc2c(C(=O)c3ccc([N+](=O)[O-])cc3)c(C(C)=O)ccc2[nH]1
BT-549 breast
  TGI: > 100 µM
MDA-MB-435
  TGI: > 100 µM
SNB-75 CNS
  TGI: 32.9 µM
SK-MEL-28 melanoma
  TGI: > 100 µM
SR leukemia
  TGI: > 100 µM
LOX IMVI melanoma
  TGI: > 100 µM
MCF7 breast
  TGI: > 100 µM
IGROV1 ovarian
  TGI: > 100 µM
HCC-2998 colon
  TGI: > 100 µM

## COc1ccc(-n2c(=O)n(C)c(=O)n2-c2ccc(OC)cc2)cc1
BT-549 breast
  TGI: > 100 µM
NCI/ADR-RES ovarian
  TGI: > 100 µM
MDA-MB-435
  TGI: > 100 µM
SNB-75 CNS
  TGI: > 100 µM
SK-MEL-28 melanoma
  TGI: > 100 µM
SR leukemia
  TGI: > 100 µM
LOX IMVI melanoma
  TGI: > 100 µM
MCF7 breast
  TGI: > 100 µM
IGROV1 ovarian
  TGI: > 100 µM

## COC(=O)[C@H]1CO[C@H]2C/C(C)=C/CC/C(C)=C/CC[C@@]3(C)O[C@@H]3C[C@H]21
BT-549 breast
  TGI: 33.8 µM
NCI/ADR-RES ovarian
  TGI: 29 µM
MDA-MB-435
  TGI: 25.1 µM
SNB-75 CNS
  TGI: 39.2 µM
SK-MEL-28 melanoma
  TGI: 34.9 µM
SR leukemia
  TGI: 27.1 µM
MCF7 breast
  TGI: > 50 µM
IGROV1 ovarian
  TGI: > 50 µM
HCC-2998 colon
  TGI: 17.9 µM

## O=C(O)c1ccn(-c2cccc(-n3ccc(C(=O)O)n3)n2)n1
BT-549 breast
  TGI: > 100 µM
NCI/ADR-RES ovarian
  TGI: > 100 µM
MDA-MB-435
  TGI: > 100 µM
SNB-75 CNS
  TGI: > 100 µM
SK-MEL-28 melanoma
  TGI: > 100 µM
SR leukemia
  TGI: > 100 µM
LOX IMVI melanoma
  TGI: > 100 µM
MCF7 breast
  TGI: > 100 µM
IGROV1 ovarian
  TGI: > 100 µM

## CN1CCN(CCCBr)CC1
BT-549 breast
  TGI: > 100 µM
NCI/ADR-RES ovarian
  TGI: > 100 µM
MDA-MB-435
  TGI: > 100 µM
SNB-75 CNS
  TGI: > 100 µM
SK-MEL-28 melanoma
  TGI: > 100 µM
LOX IMVI melanoma
  TGI: > 100 µM
MCF7 breast
  TGI: > 100 µM
IGROV1 ovarian
  TGI: > 100 µM

## CCOC(=O)c1c(N2CCCC2)ncn(Cc2ccccc2)c1=S
BT-549 breast
  TGI: > 100 µM
NCI/ADR-RES ovarian
  TGI: > 100 µM
MDA-MB-435
  TGI: > 100 µM
SNB-75 CNS
  TGI: > 100 µM
SK-MEL-28 melanoma
  TGI: > 100 µM
SR leukemia
  TGI: > 100 µM
LOX IMVI melanoma
  TGI: > 100 µM
IGROV1 ovarian
  TGI: > 100 µM
HCC-2998 colon
  TGI: > 100 µM

## CCCCCC(C)SC1(C(=O)OC)CC(OC(C)=O)C(NC(C)=O)C([C@H](OC(C)=O)[C@@H](COC(C)=O)OC(C)=O)O1 (stereo partly specified)
BT-549 breast
  TGI: > 100 µM
NCI/ADR-RES ovarian
  TGI: > 100 µM
MDA-MB-435
  TGI: > 100 µM
SNB-75 CNS
  TGI: > 100 µM
SK-MEL-28 melanoma
  TGI: > 100 µM
SR leukemia
  TGI: > 100 µM
MCF7 breast
  TGI: > 100 µM
IGROV1 ovarian
  TGI: > 100 µM
HCC-2998 colon
  TGI: > 100 µM

## CSc1n[nH]c(N)c1C(=O)Nc1ccc(C)cc1
BT-549 breast
  TGI: > 100 µM
MDA-MB-435
  TGI: > 100 µM
SK-MEL-28 melanoma
  TGI: > 100 µM
SR leukemia
  TGI: > 100 µM
LOX IMVI melanoma
  TGI: > 100 µM
MCF7 breast
  TGI: > 100 µM
HCC-2998 colon
  TGI: > 100 µM

## C[C@@H]1CC[C@H]2C(C(O)CCCCC(O)C3=C(C(F)(F)F)O[C@@H]4O[C@@]5(C)CC[C@H]6[C@H](C)CC[C@@H]3[C@@]46OO5)=C(C(F)(F)F)O[C@@H]3O[C@@]4(C)CC[C@@H]1[C@]32OO4 (stereo partly specified)
BT-549 breast
  GI50: 80.5 µM
  TGI: > 100 µM
MDA-MB-435
  GI50: 10.5 µM
  TGI: > 100 µM
SNB-75 CNS
  GI50: 42.4 µM
  TGI: > 100 µM
SK-MEL-28 melanoma
  GI50: 86.7 µM
  TGI: > 100 µM
SR leukemia
  GI50: 1.91 µM
  TGI: 6.04 µM
LOX IMVI melanoma
  GI50: 3.12 µM
  TGI: 11.8 µM
MCF7 breast
  GI50: 5.01 µM
  TGI: > 100 µM
IGROV1 ovarian
  GI50: 15.6 µM
  TGI: > 100 µM

## CCCC(=O)NC(Nc1ccc(S(=O)(=O)Nc2nc(C)cc(C)n2)cc1)(C(F)(F)F)C(F)(F)F
BT-549 breast
  TGI: > 100 µM
NCI/ADR-RES ovarian
  TGI: > 100 µM
MDA-MB-435
  TGI: > 100 µM
SNB-75 CNS
  TGI: > 100 µM
SK-MEL-28 melanoma
  TGI: > 100 µM
SR leukemia
  TGI: > 100 µM
LOX IMVI melanoma
  TGI: > 100 µM
IGROV1 ovarian
  TGI: > 100 µM
HCC-2998 colon
  TGI: > 100 µM
